Measurements from patent US20030022794A1, “Novel quaternary salts and their use in agricultural formulations” (priority 1997, published 2003).
Values belong to the compound of their own block, whether it stands above or below them.

What was measured:
Format in all cases: physicochemical
[1] = solubility in organic solvents (epoxidized soybean oil, methyl caprylate/caprate, cottonseed oil)
Description: (§1) Tetradodecyl ammonium bromide was dissolved in 5 mL of CH2Cl2 and stirred with 3.3 mL of 1 N NaOH. To this was added 1.27 g of N-[[(4,6-dimethoxypyrimidine-2-yl)amino]carbonyl]-1-methyl-4-(2-methyl-2H-tetrazol-5-yl)-H-pyrazole-5-sulfonamide (97.8%) dissolved in 5 mL of CH2Cl2 and stirring continued for 5 min at 25° C. The organic phase was separated, washed with water, dried and the solvent removed tinder vacuum in a rotary evaporator at a maximum of 50° C. The resulting viscous, colorless oil gave an assay of 35% of the corresponding sulfonylurea quaternary salt (vs. 38% theory) using HPLC. This oil was more than-50% soluble in epoxidized soybean oil, methyl caprylate/caprate, and cottonseed oil. 50% solutions of the resultant sulfonylurea quaternary salt in these three solvents were aged 1 week at 54° C., giving 20-45% relative degradation by HPLC analysis.

[2] = storage stability on aging, decomposition of the sulfonylurea measured by HPLC
Description: To 21.57 g 2-[[[[(4,6-dimethoxy-2-pyrimidinyl)amino]carbonyl]-amino]sulfonyl]-N,N-dimethyl-3-pyridinecarboxamide and 50 mL 1.0 N NaOH in 1400 mL methylene chloride was incrementally added 22.37 g of diisobutylphenoxy ethoxyethyl dimethylbenzyl ammonium chloride (Hyamine 1622, commercially available from Lonza), with several small methylene chloride washes to facilitate transfer. The reaction medium was filtered through a bed of molecular sieves to remove mineral salts and water. Methylene chloride was stripped to recover the white powder. Upon aging for 1 week at 54 C., 9% relative decomposition of the sulfonylurea resulted as measured by HPLC.
Into 7.8 g of epoxidized soybean oil (ESBO) was added with stirring: 1.18 g methyl 3-[[[[(4-methoxy-6-methyl-1,3,5-triazin-2-yl)amino]carbonyl]amino]sulfonyl]-2-thiophenecarboxylate tech (98.1%), 1.31 g of anhydrous diisobutylphenoxy ethoxyethyl dimethylbenzyl ammonium chloride […] (Hyamine 1622, available from Lonza), 0.11 g Ca(OH)2, and 0.03 g calcium acetate. The mixture was aged 3 weeks at 45° C. giving 0% relative decomposition of the sulfonylurea as measured by HPLC.
A solution on 15 g of methyl 2-[[[[(4-methoxy-6-methyl-1,3,5-triazin-2-yl)methylamino]carbonyl]amino]sulfonyl]benzoate tech (95.7%) and 18 g of Na2CO3 in 300 g of CH2Cl2 was treated with 1.5 g of NaOH and stirred 2 h. 8.65 g of benzyl triethyl ammonium chloride was added to the suspension and the mixture stirred overnight. The suspension was filtered and the filtrate stripped of solvent on a rotary evaporator yielding the corresponding sulfonylurea quaternary salt as a viscous yellow oil (15.7 g) using 1 g of the oil, a 20% solution of the quaternary salt was made in triethyl phosphate. Upon aging for 1 week at 54° C., 1% relative decomposition of the sulfonylurea resulted as indicated by HPLC.
A quaternary salt sulfonylurea was prepared using the procedure of Example 3 with 20 g methyl 2-[[[[(4-methoxy-6-methyl-1,3,5-triazin-2-yl)methylamino]carbonyl]-amino]sulfonyl]benzoate, 30 g Na2CO3, 400 g CH2Cl2, 2 g NaOH and 11.5 g benzyl triethyl ammonium chloride. One gram of the resulting orange viscous oil was made up as a 20% solution in triethyl phosphate. Upon aging for 1 week at 54° C., 2% relative decomposition of the sulfonylurea resulted as indicated by HPLC.
as §1
In a vial was vortexed the following: 0.214 g methyl 2-[[[[[(4,6-dimethoxy-2-pyrimidinyl)amino]carbonyl]amino]sulfonyl]methyl]benzoate (98.3%), 0.192 g of a 25% aqueous solution of tetramethyl ammonium hydroxide, and 4.32 g of water to produce the sulfonylurea quaternary salt. Upon aging the solution at 54° C. for one week, 52% degradation of the sulfonylurea resulted as measured by HPLC.
(§2) Deionized water (5 g) was saturated with 2-[[[[(4,6-dimethoxy-2-pyrimidinyl)amino]carbonyl]amino]sulfonyl]-N,N-dimethyl-3-pyridinencarboxamide tech (500 ppm) and aged at 25° C. for 30 days.

[3] = saturation of deionized water; conditions: tech material
Description: as §2

[4] = 20% solution in triethyl phosphate, aging 1 week at 54° C., HPLC

solubility (in words) ([1]; in epoxidized soybean oil, methyl caprylate/caprate, and cottonseed oil): practically insoluble
Compound: COc1cc(OC)nc(NC(=O)NS(=O)(=O)c2c(-c3nnn(C)n3)cnn2C)n1 [N-[[(4,6-dimethoxypyrimidine-2-yl)amino]carbonyl]-1-methyl-4-(2-methyl-2H-tetrazol-5-yl)-1H-pyrazole-5-sulfonamide]

relative degradation [2]: 20-45%
solubility [1]: > 50%
Compound: CCCCCCCCCCCC[N+](CCCCCCCCCCCC)(CCCCCCCCCCCC)CCCCCCCCCCCC.COc1cc(OC)nc(NC(=O)[N-]S(=O)(=O)c2c(-c3nnn(C)n3)cnn2C)n1 [A]

relative decomposition of the sulfonylurea [2, 4]: 1%
Compound: Quaternary Salt of Methyl 2-[[[[(4-Methoxy-6-Methyl-1,3,5-Triazin-0.2-yl)Methylamino]carbonyl]amino]sulfonyl]benzoate [Example 3]

relative decomposition of the sulfonylurea ([2]; in situ mixture in epoxidized soybean oil with Ca(OH)2 and calcium acetate, aged 3 weeks at 45° C., HPLC): 0%
Compound: In situ Quaternary Salt of Methyl 3-[[[[(4-Methoxy-6-Methyl-1,3,5-Triazin-2-yl)Amino]carbonyl]amino]sulfonyl]-2-Thiophenecarboxylate [Example 2]

The next lines start with the compound.

Compound: COC(=O)c1ccccc1CS(=O)(=O)[N-]C(=O)Nc1nc(OC)cc(OC)n1.C[N+](C)(C)C [B]
degradation of the sulfonylurea ([2]; aqueous solution, aging at 54° C. for one week, HPLC): 52%

Compound: Quaternary Salt of Methyl 2-[[[[(4-Methoxy-6-Methyl-1,3,5-Triazin-2-yl)Methylamino]carbonyl]amino]sulfonyl]benzoate [Example 4]
relative decomposition of the sulfonylurea [2, 4]: 2%

Compound: Quaternary salt of 2-[[[[(4.6-Dimethoxy-2-Pyrimidinyl)amino]carbonyl]amino]sulfonyl]-N,N-Dimethyl-3-Pyridinecarboxamide [Example 1]
relative decomposition of the sulfonylurea ([2]; isolated white powder, aging 1 week at 54 C, HPLC): 9%

Compound: COc1cc(OC)nc(NC(=O)NS(=O)(=O)c2ncccc2C(=O)N(C)C)n1 [C, 2-[[[[(4,6-dimethoxy-2-pyrimidinyl)amino]carbonyl]amino]sulfonyl]-N,N-dimethyl-3-pyridinencarboxamide]
concentration at saturation in deionized water [3]: 500 ppm
